Laboratory results taken from patent publication US8895504B2, “Amylin derivatives” (priority 2008, dated 2014).
*1 amine or outer side, *2 acyl side, *3 side chain or, on linkers, in order; H or OH if unused. Where a SMILES comes first, the peptide text is derived from it. Bridges are numbered along the chain shown (N, C = ends). The star is where a group is joined. C20 diacid = O=C(O)CCCCCCCCCCCCCCCCCCC(=O)*; γGlu = O=C(O)[C@H](CCC(=O)[*:2])N[*:1]

Columns and labels:
[1] = target: T1, Amylin 3(a) receptor (human calcitonin receptor (CTa) and RAMP-3) (Homo sapiens, UniProt O60896+P30988); test: Luciferase assay (III), BHK Amylin 3(a)//CRE-luc cells; assay type: cell-based; conditions: BHK cells with Amylin 3(a) receptor and CRE luciferase reporter, 4 hours incubation; read-out: Potency Luciferase
T1 construct: expressed in transfected cells; host or cells: BHK570 cells, stably transfected with a CRE-luciferase reporter
In short: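 Read-out is CRE-driven luciferase luminescence, taken 30 min after LucLite addition at room temperature. Compounds were incubated 4 h at 37° C in assay medium (10% FBS, 10 mM Hepes, pH 7,4). The cell line is BHK570 co-transfected with human calcitonin receptor CTa and RAMP-3, seeded overnight before use.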

[2] = system: food intake; test: Pharmacological Assay (I) - efficacy testing on appetite, ad libitum fed rat model; assay type: in vivo, Sprague Dawley (SD) rats; conditions: 30 nmol/kg vs vehicle, ad libitum fed rats, n=5-7, 0-48 hours
In short: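 SD rats, 200-250 g, individually housed on reversed light/dark cycle, ad libitum food and water; single 0.01-3 mg/kg dose ip, po or sc just before lights off, 5-8 rats per dose plus vehicle group. Food intake recorded hourly for 7 h, then at 24 h and sometimes 48 h; Grubbs outliers excluded.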

T1 sequence (O60896 24-148): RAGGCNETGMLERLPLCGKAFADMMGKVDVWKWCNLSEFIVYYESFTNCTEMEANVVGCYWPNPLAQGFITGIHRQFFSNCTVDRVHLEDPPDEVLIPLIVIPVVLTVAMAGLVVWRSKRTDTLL
T1 sequence (P30988 25-474): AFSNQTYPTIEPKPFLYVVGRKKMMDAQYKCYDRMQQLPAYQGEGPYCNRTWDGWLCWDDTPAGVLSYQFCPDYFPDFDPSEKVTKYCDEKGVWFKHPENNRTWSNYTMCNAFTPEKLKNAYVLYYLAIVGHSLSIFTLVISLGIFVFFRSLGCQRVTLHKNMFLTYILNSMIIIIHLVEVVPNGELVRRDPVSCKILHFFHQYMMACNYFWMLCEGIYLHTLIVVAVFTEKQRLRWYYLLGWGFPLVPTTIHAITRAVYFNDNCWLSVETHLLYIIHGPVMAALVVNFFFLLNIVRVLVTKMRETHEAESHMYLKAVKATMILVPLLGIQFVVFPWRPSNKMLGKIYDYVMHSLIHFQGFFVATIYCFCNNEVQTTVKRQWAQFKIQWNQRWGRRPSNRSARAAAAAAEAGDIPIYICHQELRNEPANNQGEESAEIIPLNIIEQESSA

- EC50 [1]: 60 pM
Compound: CC[C@H](C)[C@H](NC(=O)[C@@H]1CCCN1C(=O)CNC(=O)[C@H](Cc1ccccc1)NC(=O)[C@H](CC(N)=O)NC(=O)[C@H](CC(N)=O)NC(=O)[C@H](CO)NC(=O)[C@H](CO)NC(=O)[C@H](Cc1c[nH]cn1)NC(=O)[C@H](Cc1c[nH]cn1)NC(=O)[C@H](CC(C)C)NC(=O)[C@H](Cc1ccccc1)NC(=O)[C@H](CC(N)=O)NC(=O)[C@H](C)NC(=O)[C@H](CC(C)C)NC(=O)[C@H](CCCNC(=N)N)NC(=O)[C@H](CCC(N)=O)NC(=O)[C@@H](NC(=O)[C@H](C)NC(=O)[C@@H]1CSSC[C@H](NC(=O)[C@H](Cc2c[nH]cn2)NC(=O)[C@H](Cc2c[nH]cn2)NC(=O)[C@H](Cc2c[nH]cn2)NC(=O)CC[C@H](NC(=O)CCCCCCCCCCCCCCCCCCC(=O)O)C(=O)O)C(=O)N[C@@H](CC(N)=O)C(=O)N[C@@H]([C@@H](C)O)C(=O)N[C@@H](C)C(=O)N[C@@H]([C@@H](C)O)C(=O)N1)[C@@H](C)O)C(=O)N[C@@H](CC(C)C)C(=O)N1CCC[C@H]1C(=O)N1CCC[C@H]1C(=O)N[C@H](C(=O)N[C@@H](CC(N)=O)C(=O)N[C@H](C(=O)NCC(=O)N[C@@H](CO)C(=O)N[C@@H](CC(N)=O)C(=O)N[C@H](C(=O)N[C@@H](Cc1ccc(O)cc1)C(N)=O)[C@@H](C)O)C(C)C)[C@@H](C)O [Example 39, N-alpha-[(S)-4-Carboxy-4-(19-carboxynonadecanoylamino)butyryl]-His-His-[His1,His17]-pramlintide] ({C20 diacid-γGlu}-HHHCNTATCATQRLANFLHHSSNNFGPILPPTNVGSNTY-NH2; disulfide 4-9)
- food intake over a period of 48 hours [2]: effectively reducing food intake
